Row | SMILES | melting point [°C]
1 | CNC(=O)c1cc(Cl)cc(C)c1NC(=O)c1cc(OCC(F)(F)F)nn1-c1ncccc1Cl | 215 to 217
2 | CNC(=O)c1cc(Cl)cc(C)c1NC(=O)c1cc(Cl)nn1-c1ncccc1Cl | 205 to 207
3 | CCn1nc(C(F)(F)F)cc1NC(=O)c1c(C)cccc1C(=O)NC(C)C [Example 1, 2-[1-Ethyl-3-trifluoromethylpyrazol-5-ylcarbamoyl]-3-methyl-N-(1-methylethyl)benzamide] | 200 to 204
4 | Cc1cccc(C(=O)NC(C)C)c1NC(=O)c1cc(C(F)(F)F)nn1-c1ncccc1C(F)(F)F [Example 3, N-[2-Methyl-6-[[(1-methylethyl)amino]carbonyl]phenyl]-3-(trifluoromethyl)-1-[3-(trifluoromethyl)-2-pyridinyl]-1H-pyrazole-5-carboxamide] | 233 to 235
